Measured values taken from PMC9230575, “^68Ga-Labeled [Leu^13ψThz^14]Bombesin(7–14) Derivatives: Promising GRPR-Targeting PET Tracers with Low Pancreas Uptake” (Molecules, 2022).
*1 amine or outer side, *2 acyl side, *3 side chain or, on linkers, in order; H or OH if unused. Where a SMILES comes first, the peptide text is derived from it. [ ]: non-standard residue; d: D form. The star is where a group is joined. DOTA = O=C(O)CN1CCN(CC(=O)O)CCN(CC(=O)*)CCN(CC(=O)O)CC1; Leuψ(CH2N)ThzNH2 = CC(C)C[C@@H](CN1CSC[C@H]1C(N)=O)N*; d2Nal = N[C@H](Cc1ccc2ccccc2c1)C(=O)O; Cya = N[C@@H](CS(=O)(=O)O)C(=O)O; X1 = O=C(CN1CCC(N[*:1])CC1)[*:2]

Assays:
GRPR = target: T1, GRPR (Homo sapiens, UniProt P30550); assay: Fluorometric intracellular calcium release assay using PC-3 cells; format: cell-based; conditions: 50 nM ligand
T1 construct: endogenous in cells; host or cells: PC-3 prostate cancer cells
T1 sequence (P30550 whole entry): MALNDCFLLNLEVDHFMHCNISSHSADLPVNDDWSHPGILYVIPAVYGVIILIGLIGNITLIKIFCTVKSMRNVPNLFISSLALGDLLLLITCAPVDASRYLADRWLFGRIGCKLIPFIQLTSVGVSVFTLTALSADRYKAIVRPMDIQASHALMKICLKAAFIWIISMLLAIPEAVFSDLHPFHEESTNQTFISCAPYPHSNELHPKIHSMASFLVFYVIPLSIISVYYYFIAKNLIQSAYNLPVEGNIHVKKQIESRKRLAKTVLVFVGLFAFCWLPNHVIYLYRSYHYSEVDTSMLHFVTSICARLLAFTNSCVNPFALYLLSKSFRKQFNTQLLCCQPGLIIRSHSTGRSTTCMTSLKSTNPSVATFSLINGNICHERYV
Experimental: Following previously published procedures, 5 × 10^4 PC-3 cells were seeded in 96-well clear-bottom black plates 24 h prior to the assay. The growth medium was removed and replaced with a loading buffer containing a calcium-sensitive dye (FLIPR Calcium 6 assay kit, Molecular Device, San Jose, CA, USA). After incubation at 37 °C for 30 min, the plates were placed in a FlexStation 3 microplate reader (Molecular Devices). […] Agonistic/antagonistic properties were determined using the relative fluorescent unit (RFU = max–min).

physchem = conditions: 1-octanol/phosphate buffer, pH 7.4
Experimental: Briefly, aliquots (2 μL) of the ^68Ga-labeled peptides were added to a vial containing 3 mL of 1-octanol and 3 mL of 0.1 M phosphate buffer (pH 7.4). The mixture was vortexed for 1 min and then centrifuged at 5000 rpm for 10 min. Samples of the 1-octanol (1 mL) and buffer (1 mL) layers were taken and counted in a gamma counter. LogD7.4 was calculated using the following equation: LogD7.4 = log10[(counts in 1-octanol phase)/(counts in buffer phase)].

[1] = for Fraction remaining intact in plasma: NRG mice, 15 min post-injection, n = 3; for Intact tracer in urine: mouse urine samples collected at 15 min post-injection
Experimental: Imaging, biodistribution, and in vivo stability studies were performed using male NOD.Cg-Rag1^tm1Mom Il2rg^tm1Wjl/SzJ (NRG) mice (from in-house breeding colonies) following previously published procedures. […] When the tumor grew to 5–8 mm in diameter over 3–4 weeks, the mice were used for PET/CT imaging and biodistribution studies.
At 15 min post-injection, the mice were sedated and euthanized, and urine and blood were collected. The plasma was extracted from whole blood by the addition of CH3CN (500 μL), vortexing, centrifugation, and the separation of the supernatants. The plasma and urine samples were analyzed via radio-HPLC by using the conditions for quality control of these ^68Ga-labeled radioligands (Table S3).

PC-3 tumor xenografts [2] = assay: PET/CT imaging of mice bearing PC-3 tumor xenografts; format: in vivo; conditions: 1 h post-injection
Experimental: The PET/CT imaging experiments were carried out using a Siemens (Knoxville, TN, USA) Inveon micro-PET/CT scanner. […] At 50 min post-injection, a 10 min CT scan was conducted: first for localization and attenuation corrections after segmentation for reconstructing the PET images, followed by a 10 min static PET imaging acquisition.

PC-3 tumor xenografts [3] = assay: Ex vivo biodistribution in PC-3 tumor-bearing mice; conditions: 1 h post-injection, n = 4
Experimental: For biodistribution studies, the mice (n = 4) were injected with the radiotracer (~2–4 MBq, 0.03–0.07 nmol) as described above. […] At 1 h post-injection, the mice were euthanized by CO2 inhalation. Blood was withdrawn by cardiac puncture, and organs/tissues of interest were collected, weighed and counted using a Perkin Elmer (Waltham, MA, USA) Wizard2 2480 automatic gamma counter.

Compound | Ca2+ efflux (relative fluorescence units, max-min) (GRPR) | logD (physchem) | Excretion pathway in PET images (PC-3 tumor xenografts [2]) | other results
Nc1ncnc2c1ncn2[C@@H]1O[C@H](COP(=O)(O)OP(=O)(O)OP(=O)(O)O)[C@@H](O)[C@H]1O [ATP, adenosine triphosphate] | 334 ± 39.0 RFU |  |  | 
CC(C)C[C@@H](CN1CSC[C@H]1C(N)=O)NC(=O)[C@H](Cc1c[nH]cn1)NC(=O)CNC(=O)[C@@H](NC(=O)[C@H](C)NC(=O)[C@H](Cc1c[nH]c2ccccc12)NC(=O)[C@H](CCC(N)=O)NC(=O)[C@@H](Cc1ccccc1)NC(=O)CN1CCC(NC(=O)CN2CCN(CC(=O)O)CCN(CC(=O)O)CCN(CC(=O)O)CC2)CC1)C(C)C [[^68Ga]Ga-TacsBOMB2, metal not drawn] |  | -2.39 ± 0.13 | primarily excreted through the renal pathway | Fraction remaining intact in plasma [1]: 83.3 ± 1.45%; Intact tracer in urine [1]: no intact
CC(C)C[C@H](NC(=O)C[C@H](O)[C@H](CC(C)C)NC(=O)[C@H](Cc1c[nH]cn1)NC(=O)CNC(=O)[C@@H](NC(=O)[C@H](C)NC(=O)[C@H](Cc1c[nH]c2ccccc12)NC(=O)[C@H](CCC(N)=O)NC(=O)[C@@H](Cc1ccccc1)NC(=O)CN1CCC(NC(=O)CN2CCN(CC(=O)O)CCN(CC(=O)O)CCN(CC(=O)O)CC2)CC1)C(C)C)C(N)=O [[^68Ga]Ga-RM2, metal not drawn, reference compound] |  | -2.76 ± 0.03 | primarily excreted through the renal pathway | Fraction remaining intact in plasma [1]: 71.9 ± 10.4%; Intact tracer in urine [1]: no intact; Spleen uptake (PC-3 tumor xenografts [3]): 0.44 ± 0.26 %ID/g
CC(C)C[C@@H](CN1CSC[C@H]1C(N)=O)NC(=O)[C@H](Cc1c[nH]cn1)NC(=O)CNC(=O)[C@@H](NC(=O)[C@H](C)NC(=O)[C@H](Cc1c[nH]c2ccccc12)NC(=O)[C@H](CCC(N)=O)NC(=O)[C@H]1Cc2c([nH]c3ccccc23)CN1C(=O)CN1CCC(NC(=O)CN2CCN(CC(=O)O)CCN(CC(=O)O)CCN(CC(=O)O)CC2)CC1)C(C)C [Ga-TacsBOMB4] | 9.30 ± 3.74 RFU |  |  | 
bombesin | 754 ± 38.3 RFU |  |  | 
[D-Phe^6,Leu-NHEt^13,des-Met^14]Bombesin(6–14) | 25.3 ± 1.92 RFU |  |  | 
CC(C)C[C@@H](CN1CSC[C@H]1C(N)=O)NC(=O)[C@H](Cc1c[nH]cn1)NC(=O)CNC(=O)[C@@H](NC(=O)[C@H](C)NC(=O)[C@H](Cc1c[nH]c2ccccc12)NC(=O)[C@H](CCC(N)=O)NC(=O)[C@@H](Cc1ccc2ccccc2c1)NC(=O)CN1CCC(NC(=O)CN2CCN(CC(=O)O)CCN(CC(=O)O)CCN(CC(=O)O)CC2)CC1)C(C)C [[^68Ga]Ga-TacsBOMB3, metal not drawn] |  | -1.75 ± 0.04 | primarily excreted through the renal pathway | 
CC(C)C[C@@H](CN1CSC[C@H]1C(N)=O)NC(=O)[C@H](Cc1c[nH]cn1)NC(=O)CNC(=O)[C@@H](NC(=O)[C@H](C)NC(=O)[C@H](Cc1c[nH]c2ccccc12)NC(=O)[C@H](CCC(N)=O)NC(=O)[C@@H](Cc1ccc2ccccc2c1)NC(=O)CN1CCC(NC(=O)[C@H](CS(=O)(=O)O)NC(=O)CN2CCN(CC(=O)O)CCN(CC(=O)O)CCN(CC(=O)O)CC2)CC1)C(C)C [Ga-TacsBOMB6] ({DOTA}-[Cya][X1][d2Nal]QWAVGH-{Leuψ(CH2N)ThzNH2}) | 23.0 ± 0.06 RFU |  |  | 
CC(C)C[C@@H](CN1CSC[C@H]1C(N)=O)NC(=O)[C@H](Cc1c[nH]cn1)NC(=O)CNC(=O)[C@@H](NC(=O)[C@H](C)NC(=O)[C@H](Cc1c[nH]c2ccccc12)NC(=O)[C@H](CCC(N)=O)NC(=O)[C@@H](Cc1ccc2ccccc2c1)NC(=O)CN1CCC(NC(=O)[C@H](CS(=O)(=O)O)NC(=O)CN2CCN(CC(=O)O)CCN(CC(=O)O)CCN(CC(=O)O)CC2)CC1)C(C)C [[^68Ga]Ga-TacsBOMB6, metal not drawn] ({DOTA}-[Cya][X1][d2Nal]QWAVGH-{Leuψ(CH2N)ThzNH2}) |  | -2.55 ± 0.16 | primarily excreted through the renal pathway | 
